# Measurements published in patent publication US7947695B2, “5-membered annelated heterocyclic pyrimidines as kinase inhibitors” (Janssen Pharmaceutica NV, priority 2005, dated 2011).
# Columns and labels:
# Type in all cases: biochemical
# [1] = target: CDK4/cyclinD1 (Homo sapiens, UniProt P11802); experiment: In vitro filtration assay for CDK4 inhibitory activity (pRb phosphorylation, [33P]-ATP); conditions: GST-pRb substrate, 1 μM unlabeled ATP, 25° C. 45 minutes, read-out: cdk4 filter (pIC50) (converted)
# CDK4/cyclinD1, sequence (P11802 whole entry): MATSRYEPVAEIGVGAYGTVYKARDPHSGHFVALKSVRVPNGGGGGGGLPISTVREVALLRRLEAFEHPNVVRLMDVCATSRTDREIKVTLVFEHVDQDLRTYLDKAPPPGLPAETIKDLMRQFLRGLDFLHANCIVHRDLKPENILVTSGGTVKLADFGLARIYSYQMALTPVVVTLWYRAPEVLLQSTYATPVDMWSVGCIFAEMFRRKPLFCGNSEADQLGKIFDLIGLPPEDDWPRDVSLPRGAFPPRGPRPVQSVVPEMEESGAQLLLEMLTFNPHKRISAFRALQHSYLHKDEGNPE
# CDK4/cyclinD1, sequence (P24385 whole entry partner): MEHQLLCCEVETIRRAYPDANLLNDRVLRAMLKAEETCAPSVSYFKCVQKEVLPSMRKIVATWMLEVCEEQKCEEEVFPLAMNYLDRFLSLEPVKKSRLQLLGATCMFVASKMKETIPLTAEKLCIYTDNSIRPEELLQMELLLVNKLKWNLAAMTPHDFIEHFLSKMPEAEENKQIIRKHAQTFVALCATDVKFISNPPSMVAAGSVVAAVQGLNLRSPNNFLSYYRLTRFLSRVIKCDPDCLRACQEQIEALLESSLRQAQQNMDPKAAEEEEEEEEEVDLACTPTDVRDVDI
# Method: (§1) Compounds of the present invention were tested in an in vitro filtration assay assessing CDK4 activity by means of its pRb-phosphorylation activity using [^33P]-ATP as phosphor donor. The radioactive phosphorylated pRb is then captured on filtermats and the incorporated [^33P] quantitated using a phosphorage storage screen.
# The CDK4 kinase reaction is performed at 25° C. for 45 minutes in a 96-well microtiterplate. The 25 μl reaction volume contains 50 mM Hepes pH 7.5, 10 mM NaF, 10 mM MgCl2, 1 mM Na3VO4, 1 μM unlabeled ATP, 1 mM DTT, 0.5 μCi AT^33P, 0.76 μg/well GST-pRb, 50 ng CDK4/cyclinD1/well and 0.2% compound in 100% DMSO.
# (§2) The reaction is stopped by adding 5 μl of a 3% phosphoric acid solution. 10 μl of the reaction mixture is then spotted onto a Filtermat P30 filter (Wallac) and washed 3 times for 5 min. in 75 mM phosphoric acid and 1 time for 5 min. in methanol prior to drying and quantification on the Typhoon (Amersham) using a phosphorage storage screen.
# (§3) For each experiment, controls (containing enzyme (complex) and DMSO without compound), a blank incubation (containing DMSO but no enzyme (complex) or compound) and samples (containing enzyme (complex) and compound dissolved in DMSO) were run in parallel. All compounds tested were dissolved and eventually further diluted in DMSO. […] In each test, the blank value was subtracted from both the control and the sample values. The control sample represented maximal enzyme activity. For each sample, the amount of cpm was expressed as a percentage of the mean cpm value of the controls. When appropriate, IC50-values (concentration of the drug, needed to reduce the enzyme activity to 50% of the control) were computed using linear interpolation between the experimental points just above and below the 50% level. Herein the effects of test compounds are expressed as pIC50 (the negative log value of the IC50-value).
# [2] = target: T1, AURORA A (Homo sapiens, UniProt O14965); experiment: In vitro filtration assay for AURORA A inhibitory activity; conditions: Kemptide substrate, 1 μM unlabeled ATP, 25° C. 40 minutes, read-out: Aurora A see C.2 (pIC50) (converted)
# T1 sequence (O14965 1-403): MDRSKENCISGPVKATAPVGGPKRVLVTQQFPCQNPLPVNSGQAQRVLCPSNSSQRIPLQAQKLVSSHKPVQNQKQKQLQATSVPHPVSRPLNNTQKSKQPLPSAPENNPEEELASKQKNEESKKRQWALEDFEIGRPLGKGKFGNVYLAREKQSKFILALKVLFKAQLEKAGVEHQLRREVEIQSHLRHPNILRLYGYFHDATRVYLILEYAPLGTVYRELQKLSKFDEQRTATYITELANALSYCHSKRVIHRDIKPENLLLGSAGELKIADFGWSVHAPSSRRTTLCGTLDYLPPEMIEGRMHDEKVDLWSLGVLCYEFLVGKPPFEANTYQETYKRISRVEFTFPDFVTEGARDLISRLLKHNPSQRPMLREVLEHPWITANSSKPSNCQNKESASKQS
# Method: as §1, with “AURORA A” for “CDK4”, “substrate-phosphorylation” for “pRb-phosphorylation”, “substrate” for “pRb”
# The Aurora-A kinase reaction is performed at 25° C. for 40 minutes in a 96-well microtiterplate. The 25 μl reaction volume contains 12 mM MOPS pH 7, 0.4 mM EDTA, 0.002% Brij35, 1% glycerol, 0.02% beta-mercapto-ethanol, 0.2 mg/ml BSA, 1 μM unlabeled ATP, […] [^33P]-ATP, 200 μM Kemptide, 3 ng Aurora A/well and 0.2% compound in 100% DMSO.
# as §2, §3
# [3] = target: AURORA B (Homo sapiens, UniProt Q96GD4); experiment: In vitro filtration assay for AURORA B inhibitory activity; conditions: peptide (C(LRRWSLG)×4), 1 μM unlabeled ATP, 25° C. 40 minutes, read-out: Aurora B see C.3 (pIC50) (converted)
# AURORA B, sequence (Q96GD4 whole entry): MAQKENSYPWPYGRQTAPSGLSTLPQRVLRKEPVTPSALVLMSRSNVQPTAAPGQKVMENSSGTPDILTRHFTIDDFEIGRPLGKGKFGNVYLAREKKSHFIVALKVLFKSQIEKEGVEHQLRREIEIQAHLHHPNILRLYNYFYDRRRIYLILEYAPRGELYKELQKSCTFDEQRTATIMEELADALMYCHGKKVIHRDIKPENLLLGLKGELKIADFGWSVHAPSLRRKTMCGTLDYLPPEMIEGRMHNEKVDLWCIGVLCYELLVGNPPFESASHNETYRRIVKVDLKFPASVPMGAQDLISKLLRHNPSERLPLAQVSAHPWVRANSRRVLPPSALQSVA
# Method: as §1, with “AURORA B” for “CDK4”, “substrate-phosphorylation” for “pRb-phosphorylation”, “substrate” for “pRb”
# The Aurora-B kinase reaction is performed at 25° C. for 40 minutes in a 96-well microtiterplate. The 25 μl reaction volume contains 60 mM Hepes pH 7.5, 3 mM MgCl2, 3 mM MnCl2, 3 μM Na3VO4, 50 μg/ml PEG20000, 1 μM unlabeled ATP, 1 mM DTT, 0.2 μCi AT^33P, 0.25 μg/well peptide (C(LRRWSLG)×4),100 ng Aurora-B/well and 0.2% compound in 100% DMSO. The reaction is stopped by adding 5 μl of a 3% phosphoric acid solution. 10 μl of the reaction mixture is then spotted onto a Filtermat P30 filter (Wallac) and washed 3 times for 5 min. in 75 mM phosphoric acid and 1 time for 5 min. in methanol prior to drying and quantification on the Typhoon (Amersham) using a phosphorage storage screen.
# as §3
SMILES,IC50 [1] [nM],IC50 [2] [nM],IC50 [3] [nM]
"CN1CCN(c2ccc(Nc3ncc4cnn([C@H]5C[C@@H]6CC[C@H]5C6)c4n3)cc2)CC1 (single isomer, unassigned) [Co. No. 23]",5.01,100,158
CN1CCN(Cc2ccc(Nc3ncc4cnn(C5CCCCC5)c4n3)cc2)CC1 [Co. No. 2],3.16,501,> 10000
CN1CCN(C(=O)c2ccc(Nc3ncc4cnn(C5CCCCC5)c4n3)cc2)CC1 [Co. No. 3],6.31,501,> 10000
c1cc(Nc2ncc3cnn(C4CCCCC4)c3n2)ccc1CNCCN1CCOCC1 [Co. No. 4],2.51,1000,> 1580
OCCN1CCN(c2ccc(Nc3ncc4cnn(C5CCCCC5)c4n3)cc2)CC1 [Co. No. 15],10,631,> 10000
OCCN1CCN(Cc2ccc(Nc3ncc4cnn(C5CCCCC5)c4n3)cc2)CC1 [Co. No. 37],7.94,200,398
CN1CCC(NCc2ccc(Nc3ncc4cnn(C5CCCCC5)c4n3)cc2)CC1 [Co. No. 60],7.94,1580,> 10000
CN1CCN(c2ccc(Nc3ncc4cnn([C@H]5C[C@@H]6CC[C@H]5C6)c4n3)cc2)CC1 [compound 16],31.6,398,> 10000
c1cc(N2CCOCC2)ncc1Nc1ncc2cnn(C3CCCCC3)c2n1 [compound 17],20,794,> 10000
CN1CCN(c2ccc(Nc3ncc4cnn(C5CCCCC5)c4n3)cc2Cl)CC1 [compound 18],251,158,> 10000
CC(=O)N1CCN(c2ccc(Nc3ncc4cnn(C5CCCCC5)c4n3)cc2)CC1 [compound 19],5010,> 10000,> 10000
OC1CCN(c2ccc(Nc3ncc4cnn(C5CCCCC5)c4n3)cc2)CC1 [compound 20],12.6,501,> 10000
NS(=O)(=O)N1CCN(c2ccc(Nc3ncc4cnn(C5CCCCC5)c4n3)cc2)CC1 [compound 21],39.8,200,3160
c1ccc(N2CCN(c3ccc(Nc4ncc5cnn(C6CCCCC6)c5n4)cc3)CC2)nc1 [compound 22],501,39.8,> 10000
CC(C)(O)CN1CCN(c2ccc(Nc3ncc4cnn(C5CCCCC5)c4n3)cc2)CC1 [compound 24],126,251,3160
CC(C)(C)OC(=O)N1CCN(c2ccc(Nc3ncc4cnn(C5CCCCC5)c4n3)cc2)CC1 [compound 25],1000,100,3160
c1cc(N2CCNCC2)ccc1Nc1ncc2cnn(C3CCCCC3)c2n1 [compound 26],15.8,251,1260
CN1CCN(c2ccc(Nc3ncc4cnn(C5CCOCC5)c4n3)cc2)CC1 [compound 27],200,501,> 10000
c1cc(Nc2ncc3cnn(C4CCCCC4)c3n2)ncc1N1CCOCC1 [compound 28],1000,2510,> 10000

SMILES,IC50 [1] [nM],IC50 [2] [nM],IC50 [3] [nM]
CC(C)(C)OC(=O)N1CCN(c2ccc(Nc3ncc4cnn(C5CCCCC5)c4n3)nc2)CC1 [compound 29],6310,> 10000,> 10000
c1cc(Nc2ncc3cnn(C4CCCCC4)c3n2)ncc1N1CCNCC1 [compound 30],50.1,> 10000,> 10000
CC(C)(O)C(=O)N1CCN(c2ccc(Nc3ncc4cnn(C5CCCCC5)c4n3)cc2)CC1 [compound 31],31.6,–,–
c1cc(Nc2ncc3cnn(C4CCCCC4)c3n2)ccc1CN1CCOCC1 [compound 33],631,15.8,7940
NS(=O)(=O)N1CCN(Cc2ccc(Nc3ncc4cnn(C5CCCCC5)c4n3)cc2)CC1 [compound 34],63.1,158,> 10000
c1ccc(N2CCN(Cc3ccc(Nc4ncc5cnn(C6CCCCC6)c5n4)cc3)CC2)nc1 [compound 35],100,251,> 10000
CN1CCN(Cc2ccc(Nc3ncc4cnn([C@H]5C[C@@H]6CC[C@H]5C6)c4n3)cc2)CC1 [compound 36],100,251,> 10000
CC(C)(O)CN1CCN(Cc2ccc(Nc3ncc4cnn(C5CCCCC5)c4n3)cc2)CC1 [compound 38],12.6,1000,2000
CN1CCN(Cc2ccc(N(C(=O)OC(C)(C)C)c3ncc4cnn([C@H]5C[C@@H]6CC[C@H]5C6)c4n3)cc2)CC1 [compound 39],1580,6310,> 10000
CN1CCN(Cc2ccc(Nc3ncc4cnn([C@H]5C[C@@H]6CC[C@H]5C6)c4n3)cc2)CC1 [compound 40],63.1,316,398
CC(C)(C)OC(=O)N(c1ccc(CN2CCOCC2)cc1)c1ncc2cnn([C@H]3C[C@@H]4CC[C@H]3C4)c2n1 [compound 41],3980,3160,3160
COCCCN1CCN(Cc2ccc(N(C(=O)OC(C)(C)C)c3ncc4cnn(C5CCCCC5)c4n3)cc2)CC1 [compound 42],> 10000,> 10000,> 10000
COCCCN1CCN(Cc2ccc(Nc3ncc4cnn(C5CCCCC5)c4n3)cc2)CC1 [compound 43],63.1,126,3980
COCCCC(=O)N1CCN(Cc2ccc(N(C(=O)OC(C)(C)C)c3ncc4cnn(C5CCCCC5)c4n3)cc2)CC1 [compound 44],> 10000,> 10000,> 10000
COCCCC(=O)N1CCN(Cc2ccc(Nc3ncc4cnn(C5CCCCC5)c4n3)cc2)CC1 [compound 45],398,200,–
CN1CCN(Cc2ccc(Nc3ncc4cnn(C5CCOCC5)c4n3)cc2)CC1 [compound 49],1260,1260,–
CC(C)(C)OC(=O)N(c1ccc(CNC2CCOCC2)cc1)c1ncc2cnn(C3CCCCC3)c2n1 [compound 66],7940,–,> 10000
COCCCN1CCN(c2ccc(Nc3ncc4c(n3)N(C3CCCCC3)C(=O)C4)cc2)CC1 [compound 90],316,1580,–
CC(C)(O)CN1CCC(NC(=O)c2ccc(Nc3ncc4cnn(C5CCCCC5)c4n3)cc2)CC1 [compound 98],398,316,–
